In patent US4069379A, “Semi-synthetic oleandomycins” (Pfizer Inc., priority 1976, dated 1978) one finds MIC and protection against infection data, which are given here for eight compounds.

Values after ≈ are worked out from the molar mass of the structure shown. Where two headings read alike, the source gives them in different places.

The test system of assay [1] is Staph. aureus 01A400R. Kind of assay: minimum inhibitory concentration (MIC), Staph. aureus 01A400R. It is filed as cell-based. The note with it: Staphylococcus aureus, read-out: MIC Values, Staph. aureus 01A400R. An excerpt: (§1) The oleandomycin compounds of the present invention are effective in inhibiting the growth of microorganisms, especially Gram-positive microorganisms. The high activity against Gram-positive organisms shown by these compounds is contrasted in some respects with the lower activity against Gram-negative organisms. The following table illustrates the in vitro antibiotic spectrum of the compounds of the instant invention. The tests were run according to the "minimum inhibitory concentration"(MIC) procedure of Ericsson and Sherris [H. M. Ericsson and J. C. Sherris, Acta. Pathol. Microbiol. Scand. Suppl., 217B 64 (1971)].

Assay [2] deals with Klebsiella pn. 53A009. In words: minimum inhibitory concentration (MIC), Klebsiella pn. 53A009. The format is cell-based. The note with it: in vitro; Klebsiella pn. 53A009, Gram-negative.
Source text: as §1

Assay [3] has as its system Salm. typhm. 58D009. Kind of assay: minimum inhibitory concentration (MIC), Salm. typhm. 58D009. The format is cell-based. The note with it: in vitro; Salm. typhm. 58D009, Gram-negative.
Source text: as §1

For assay [4], the system named is E. coli 51A266. In words: minimum inhibitory concentration (MIC), E. coli 51A266. The format is cell-based. The note with it: Escherichia coli; in vitro; E. coli 51A266, Gram-negative.
Source text: as §1

Assay [5] has as its system Staph. aureus 01A005. In words: minimum inhibitory concentration (MIC), Staph. aureus 01A005. The format is cell-based. The note with it: Staphylococcus aureus; in vitro; Staph. aureus 01A005, Gram-positive.
Source text: as §1

In assay [6] the test system is B. subtilis. Kind of assay: minimum inhibitory concentration (MIC), B. subtilis. It is filed as cell-based. The note with it: Bacillus subtilis, in vitro, Gram-positive.
Source text: as §1

Assay [7] concerns Staph. aureus 01A005. In words: protection against in vivo infection of mice infected with Staph. aureus 01A005. The note with it: subcutaneous or oral administration to mice infected with Staph. aureus 01A005; compared with natural oleandomycin. As for the experimental part: The ability of the compounds of the present invention to protect against in vivo infections was determined by subcutaneous or oral administration to mice infected with Staph. aureus 01A005. Using the test method described by Retsema [J. A. Retsema et al., Antimicr.

Setting [8] is: in vitro, Staph. aureus 01A400R, Gram-positive.

For `C=C1CC(C)C(OC2OC(C)CC(N(C)C)C2OC(C)=O)C(C)C(OC2CC(OC)C(OC(C)=O)C(C)O2)C(C)C(=O)OC(C)C(C)C(OC(C)=O)C(C)C1=O` (centres unmarked) [Compound II Ac Ac Ac, 8,8a-Deoxy-8,8a-Methylene-2',4",11-Triacetyloleandomycin], the minimal inhibitory concentration (MIC) (usually the smallest concentration in the dilution series that meets the test's criterion for growth inhibition) in assay [1] (setting [8]) was 200 µg/mL (≈ 251 µM); in assay [2] it was more than 200 µg/mL; in assay [3], more than 200 µg/mL; in assay [4], more than 200 µg/mL; in assay [5], 25 µg/mL (≈ 31.3 µM).
With `C=C1CC(C)C(OC2OC(C)CC(N(C)C)C2OC(C)=O)C(C)C(OC2CC(OC)C(OC(C)=O)C(C)O2)C(C)C(=O)OC(C)C(C)C(OC(=O)C(F)(F)F)C(C)C1=O` (centres unmarked) [Compound II Ac Ac drawing 7, 8,8a-Deoxy-8,8a-Methylene-2',4"-Diacetyl-11-Trifluoroacetyloleandomycin], the MIC in assay [1] (setting [8]) is 200 µg/mL (≈ 235 µM); in assay [2], more than 200 µg/mL; in assay [3] it was more than 200 µg/mL; in assay [4], more than 200 µg/mL; in assay [5], 25 µg/mL (≈ 29.3 µM); in assay [6], 25 µg/mL (≈ 29.3 µM).
As to `C=C1CC(C)C(OC2OC(C)CC(N(C)C)C2OC(C)=O)C(C)C(OC2CC(OC)C(O)C(C)O2)C(C)C(=O)OC(C)C(C)C(OC(C)=O)C(C)C1=O` (centres unmarked) [Compound II Ac H Ac, 8,8a-Deoxy-8,8a-Methylene-2',11-Diacetyloleandomycin], the MIC in assay [1] (setting [8]) is more than 200 µg/mL; in assay [2] it was more than 200 µg/mL; in assay [3] it was more than 200 µg/mL; in assay [4], more than 200 µg/mL; in assay [5], 3.12 µg/mL (≈ 4.13 µM); in assay [6], 3.12 µg/mL (≈ 4.13 µM).
Turning to `C=C1CC(C)C(OC2OC(C)CC(N(C)C)C2O)C(C)C(OC2CC(OC)C(O)C(C)O2)C(C)C(=O)OC(C)C(C)C(O)C(C)C1=O` (centres unmarked) [Compound II H H H, 8,8a-Deoxy-8,8a-Methylene-Oleandomycin], the protection against infection entry in assay [7] was “protection against infection which was comparable to natural oleandomycin”. The MIC in assay [1] (setting [8]) was 25 µg/mL (≈ 37.2 µM); in assay [2] it was more than 200 µg/mL; in assay [4], more than 200 µg/mL; in assay [5] it was 6.25 µg/mL (≈ 9.3 µM).
In the case of `COC1CC(OC2C(C)C(=O)OC(C)C(C)C(OC(C)=O)C(C)C(=O)C3(CC3)CC(C)C(OC3OC(C)CC(N(C)C)C3OC(C)=O)C2C)OC(C)C1OC(C)=O` (centres unmarked) [Compound III Ac Ac Ac, 8,8a-Deoxy-8,8a-Cyclopropyl-2',4",11-Triacetyloleandomycin], the MIC in assay [1] (setting [8]) is 12.5 µg/mL (≈ 15.4 µM); in assay [2], more than 200 µg/mL; in assay [3] it was more than 200 µg/mL; in assay [4], more than 200 µg/mL; in assay [5] it was 1.56 µg/mL (≈ 1.92 µM); in assay [6], 3.12 µg/mL (≈ 3.84 µM).
`COC1CC(OC2C(C)C(=O)OC(C)C(C)C(O[Si](C)(C)C)C(C)C(=O)C3(CC3)CC(C)C(OC3OC(C)CC(N(C)C)C3OC(C)=O)C2C)OC(C)C1OC(C)=O` (centres unmarked) [Compound III Ac Ac Me3 Si, 8,8a-Deoxy-8,8a-Cycloproyl-2',4"-Diacetyl-11-Trimethylsilyloleandomycin]: the MIC in assay [1] (01A400R) is more than 200 µg/mL; in assay [2] it was more than 200 µg/mL; in assay [3], more than 200 µg/mL; in assay [4] it was more than 200 µg/mL; in assay [5], 3.12 µg/mL (≈ 3.7 µM); in assay [6] it was 12.5 µg/mL (≈ 14.8 µM).
On to `COC1CC(OC2C(C)C(=O)OC(C)C(C)C(OC(C)=O)C(C)C(=O)C3(CC3)CC(C)C(OC3OC(C)CC(N(C)C)C3OC(C)=O)C2C)OC(C)C1O` (centres unmarked) [Compound III Ac H Ac, 8,8a-Deoxy-8,8a-Cyclopropyl-2',11-Diacetyloleandomycin], for which the minimal inhibitory concentration (MIC) was 3.12 µg/mL (≈ 4.05 µM) in assay [1] (setting [8]); more than 200 µg/mL in assay [2]; more than 200 µg/mL in assay [3]; more than 200 µg/mL in assay [4]; 0.2 µg/mL (≈ 0.26 µM) in assay [5]; 0.78 µg/mL (≈ 1.01 µM) in assay [6].
In the case of `COC1CC(OC2C(C)C(=O)OC(C)C(C)C(O)C(C)C(=O)C3(CC3)CC(C)C(OC3OC(C)CC(N(C)C)C3O)C2C)OC(C)C1O` (centres unmarked) [Compound III H H H, 8,8a-Deoxy-8,8a-Cyclopropyloleandomycin], the protection against infection entry in assay [7] is listed as “protection against infection which was comparable to natural oleandomycin”. Further, the MIC in assay [1] (setting [8]) was 1.56 µg/mL (≈ 2.27 µM); in assay [2], more than 200 µg/mL; in assay [3] it was more than 200 µg/mL; in assay [4], more than 200 µg/mL; in assay [5], 0.2 µg/mL (≈ 0.292 µM); in assay [6] it was 0.39 µg/mL (≈ 0.569 µM).
